Laboratory results as given in ChEMBL document CHEMBL1144870 (J Med Chem, 2003).

Molecular target: T1, Hypoxanthine-guanine phosphoribosyltransferase (Homo sapiens, UniProt P00492)
T1 sequence (P00492 whole entry): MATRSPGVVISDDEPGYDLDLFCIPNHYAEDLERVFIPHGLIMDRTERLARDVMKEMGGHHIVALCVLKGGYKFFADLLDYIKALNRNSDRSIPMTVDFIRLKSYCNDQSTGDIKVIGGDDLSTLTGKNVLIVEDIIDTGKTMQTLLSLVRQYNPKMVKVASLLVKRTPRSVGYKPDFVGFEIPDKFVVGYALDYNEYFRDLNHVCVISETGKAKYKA
Test: Kinetic inhibition constant of compound with human Hypoxanthine Phosphoribosyltransferase (HPRT)

Structure (SMILES): O=C(Nc1cc2c3ccccc3ccc2c2ccccc12)C(Cl)Cl
- Ki: 16 µM
